US8247444B2, “Anti-tumor effect of dimeric phthalide compound” (priority 2007, dated 2012)
Converted amounts (≈) assume the structure as drawn.

Assays:
KB [1] = test: Vascular endothelial cell inhibition assay (CCK-8), KB; type: cell-based; settings: Homo sapiens, 72 h, CCK-8, Table 2
Description: (§1) 2×10^3 cells were seeded into a 96-well plate and cultured for 24 h. S1-S6 of different concentrations (0, 0.01, 0.1, 0.5, 1, 2.5, 5, 10, 20, 40, 80, 160 μg/ml, respectively) were added and incubated for 72 h, n=6 for each concentration. The inhibition of cell proliferation was detected by CCK-8 assay, the results were calculated as IC50, as describe in Example 3.

[2] = tested on: U87MG, H1299 and HL-60 heterograft tumors; test: Inhibition of the growth of nude mouse heterograft tumors; type: in vivo, Balb/c male nude mice; settings: FIG. 9; for tumor inhibition effect: intraperitoneal, S4 25 mg/kg, S6 30 mg/kg, S1 32 mg/kg, BP 250 mg/kg, 4 weeks
Description: Experimental grouping: Balb/c male nude mice were used, each weighted 18-22 g, and three assays were performed. The mice were seeded with U87MG, H1299 and HL-60 respectively. The animals were divided into three groups for each experiment, one as control, one was administered with the dimeric phthalide compounds, and one was administered with monomers of phthalide compound, 6 animals for each group.
For the group which was administered with monomers of phthalide compound, we used n-butylidenephthalide (BP) (Sigma) as active ingredient for tumor suppression, the compound had the structure as follows:
Experimental Process The H1299, HL-60 or U87MG cells growing in logarithmic phase were used. […] When the tumors had gown into 0.1-0.5 cm^3 (about 7-10 days), the animals were intraperitoneal injected with the dimeric phthalide compound S4 (25 mg/kg), S6 (30 mg/kg), S1 (32 mg/kg), each 200 μl; for the group of monomers of phthalide compound, the mice were intraperitoneal injected with n-butylidenephthalide (250 mg/kg); the control group was administered with equal volume of vehicle. The animals were sacrificed after 4 weeks, and the subcutaneous tumors were separated. Photographs were taken (FIG. 9A) and the tumors were weighted (FIG. 9B).

Bel-7402 [3] = test: Vascular endothelial cell inhibition assay (CCK-8), Bel-7402; type: cell-based; settings: Homo sapiens, 72 h, CCK-8, Table 2
Description: as §1

SMMC-7721/Adr = test: Growth inhibition of sensitive and drug-resistant cell lines (IC50), SMMC-7721/Adr; type: cell-based; settings: Homo sapiens; SMMC-7721/Adr drug-resistant cells
Text: (§2) HL-60/ADR, MCF-7/ADR, K562/ADR, Bel-7402/5-FU, KBV200, SMMC-7721/Adr were respectively chemotherapeutics Adriamycin (ADR), 5-Fluorouracil (5-FU) or vincristine (VCR) drug-resistant sub-stains of HL-60, MCF-7, K562, Bel-7402, KB, SMMC-7721 cells (all from Chinese Academy of Medical Sciences). NB4-R2 was all trans-retinoic acid (ATRA) drug-resistant sub-stain (from Pathophysiology Research Department of Shanghai JiaoTong University). The main drug-resistance mechanism of K562/ADR was high expression of P-glycoprotein (P-gp), along with increased expression of Bcl-2. In addition to high expression of P-gp, the drug-resistance mechanism of MCF-7/ADR also related to the high expression of Breast Cancer Resistant Protein (BCRP). The main drug-resistance mechanism of HL-60/ADR was high expression of Multidrug Resistance Protein 1 (MRP1), along with high expression of Bcl-2, Bcl-xL. […] The main drug-resistance mechanism of KBV200 was high expression of P-gp and its increased activity. The drug-resistance mechanism of NB4-R2 on ATRA was mutation in the RAR gene locus.
(§3) The human lung cancer cell H1299 and H446, glioma cell U251 and U87MG, and human hepatic cellular cancer Bel-7402 cell in logarithmic growth phase were digested with pancreatic enzyme, and then suspended into DMEM or RPMI1640 containing 10% fetal bovine serum. The leukemic cells Kasumi-1 need no digestion, and were suspended into RPMI1640 containing 10% fetal bovine serum directly after centrifugalization. The cell density was adjusted to 1×10^4 cells/ml through cell counting, and the cell suspensions were seeded into a 96-well plate respectively, 100 μl/well, totally 6 groups of cells. The adherent cells were cultured overnight, the suspended cells were added different concentration gradients of dimeric phthalide compounds (S1-S6) directly, n=6 for each concentration of a single agent. The final volume was 200 ul, and the balance was supplemented with the culture medium. The plate was then incubated for 68 hours in 37° C., saturated humidity, 5% CO2 cell incubator. The medium was aspirated and 72 μl/well fresh culture medium was added. 8 μl […] (CCK-8) was added into each well and cultured for 2 hours. The absorbance was measured at 450 nm. The results were calculated as the 50% inhibiting drug concentration, i.e. IC50, using Sigmoidal simulation function by software Origin 7.0.
(§4) The cancer cells (various cell lines as shown in table 1 or FIG. 3) were seeded 1×10^3 cells per well into a 96-well plate. The suspended cells were added different concentration of dimeric phthalide compounds (S1-S6) directly, and the adherent cells were cultured overnight and added different concentration of dimeric phthalide compounds (S1-S6). The different concentration of dimeric phthalide compounds were divided into 10 groups: 0, 0.1, 0.5, 1, 5, 10, 20, 40, 80, 160 μg/ml, n=6 for each concentration.
(§5) According to the method described in Example 2, […] was detected and IC50 was calculated. The experiment was repeated for 3 times.
(§6) The growth inhibition effects of dimers of S1-S6 on its sensitive cell lines as well as the drug-resistant sub-strains (IC50 (μg/ml)) were shown in table 1 and FIG. 3.

K562/Adr = test: Growth inhibition of sensitive and drug-resistant cell lines (IC50), K562/Adr; type: cell-based; settings: Homo sapiens; K562/Adr drug-resistant cells
Text: as §2, §3, §4, §5, §6

HUVEC = test: Vascular endothelial cell inhibition assay (CCK-8), HUVEC; type: cell-based; settings: Homo sapiens, 72 h
Description: as §1

MCF-7 = test: Growth inhibition of sensitive and drug-resistant cell lines (IC50), MCF-7; type: cell-based; settings: Homo sapiens, MCF7; MCF-7 cells
Description: (§7) In the following Examples, the cell lines used were H1299, H446 (human lung cancer cell line), KB (human oral cavity carcinoma cell line), NB4, HL-60 (human leukemic cell line), U251 ? U87MG (human glioblastoma cell line), MCF-7 (human breast carcinoma cell line), Bel-7402 and SMMC7721 (human hepatic cellular cancer cell line), SW620 (human colon carcinoma cell line), HDF (human dermis fibroblast), HUVEC (human umbilical vein endothelial cell line) and Kasumi-1 (human acute myeloid leukaemia cell line), all from American Type Culture Collection (ATCC).
as §3, §4, §5, §6

K562 = test: Growth inhibition of sensitive and drug-resistant cell lines (IC50), K562; type: cell-based; settings: Homo sapiens; K562 cells
Description: as §3, §4, §5, §6

HDF = test: Vascular endothelial cell inhibition assay (CCK-8), HDF; type: cell-based; settings: Homo sapiens, 72 h
Description: as §1

KBv200 = test: Growth inhibition of sensitive and drug-resistant cell lines (IC50), KBv200; type: cell-based; settings: Homo sapiens; KBv200 drug-resistant cells
Text: as §2, §3, §4, §5, §6

Bel-7402 [4] = test: Growth inhibition of sensitive and drug-resistant cell lines (IC50), Bel-7402; type: cell-based; settings: Homo sapiens; Bel-7402 cells, Table 1
Description: as §7, §3, §4, §5, §6

SMMC-7721 = test: Growth inhibition of sensitive and drug-resistant cell lines (IC50), SMMC-7721; type: cell-based; settings: Homo sapiens; SMMC-7721 cells
Description: as §7, §3, §4, §5, §6

[5] = tested on: drug-resistant cells of different mechanisms and sensitive cells; test: Overcome drug resistance: efficacy on drug-resistant cells compared with sensitive cells; type: cell-based, human; settings: table 1 and FIG. 3
Description: as §4, §5

Bel-7402/5-Fu = test: Growth inhibition of sensitive and drug-resistant cell lines (IC50), Bel-7402/5-Fu; type: cell-based; settings: Homo sapiens, Bel7402/5-FU; Bel-7402/5-Fu drug-resistant cells
Text: as §2, §3, §4, §5, §6

MCF-7/Adr = test: Growth inhibition of sensitive and drug-resistant cell lines (IC50), MCF-7/Adr; type: cell-based; settings: Homo sapiens, NCI/ADR-RES; MCF-7/Adr drug-resistant cells
Text: as §2, §3, §4, §5, §6

KB [6] = test: Growth inhibition of sensitive and drug-resistant cell lines (IC50), KB; type: cell-based; settings: Homo sapiens; KB cells, Table 1
Description: as §7, §3, §4, §5, §6

[7] = tested on: secretion of VEGF in H1299 cell; test: VEGF in supernatant of tumor cell H1299 culture (VEGF-ELISA); type: cell-based, human; settings: H1299, compound 5 μg/ml, 24 h; for inhibition at 5 µg/mL: Homo sapiens, NCI-H1299, read-out: Inhibition rate of VEGF secretion
Description: Assay of vascular endothelial cell growth factor (VEGF) in supernatant of tumor cell H1299 culture. The cell was seeded into a 24-well plate (n=3 for each sample). H1299 cell was treated with S1-S6 respectively and cultured for 24 h. The culture supernatants from each group were collected and operated according to the instruction of VEGF-ELISA kit (JIN MEI Corporation). The samples were added, incubated, washed and detected at 450 nm for OD values of each sample. The standard curve was obtained by using different dose of VEGF standards and the secretory volume of VEGF in the supernatant was calculated.

[8] = tested on: H1299, H446, U251, U87MG, Bel-7402 and Kasumi-1 cells; test: Inhibition effects on proliferation (CCK-8), various human cancer cells; type: cell-based; settings: FIG. 2, 68 h
Description: as §3

HL-60, H1299, U251 cells = test: Inducing cell death (Rh123/PI flow cytometry); type: cell-based, human; settings: 48 h, FIG. 5
Description: S1-S6 of different concentrations (as shown in FIG. 5) were added into HL-60, H1299, U251 cells under good growing conditions. The cells were cultured for 48 h, and collected. The cells were incubated with rhodamine 123 (Rh123) of the final concentration of 10 μg/ml for 20 min at 37° C., and then washed with pre-cooled PBS twice. The cells were suspended into PBS, and PI of final concentration of 25 μg/ml was added. After incubated in the dark at room temperature for 15 min, mitochondria membrane potential and PI positive cells were detected by flow cytometry, the death rate was calculated as the rate of PI positive cells.

Row | Structure (SMILES) | IC50 (KB [1]) [µg/mL] | tumor inhibition effect [2] | IC50 (Bel-7402 [3]) [µg/mL] | IC50 (SMMC-7721/Adr) [µg/mL] | IC50 (K562/Adr) [µg/mL] | IC50 (HUVEC) [µg/mL] | IC50 (MCF-7) [µg/mL] | IC50 (K562) [µg/mL] | IC50 (HDF) [µg/mL] | IC50 (KBv200) [µg/mL] | IC50 (Bel-7402 [4]) [µg/mL] | IC50 (SMMC-7721) [µg/mL] | efficacy on drug-resistant cells compared with sensitive cells [5] | IC50 (Bel-7402/5-Fu) [µg/mL] | IC50 (MCF-7/Adr) [µg/mL] | IC50 (KB [6]) [µg/mL] | Supernatant VEGF [7] [ng/ml/10^6 cells] | inhibition at 5 µg/mL [7] [%] | other results
1 | CCC/C=C1\OC(=O)C2=C1CCC1C2C2(OC(=O)C3=C2CCC=C3)C1(C)CCC (stereo not shown) [S6] | 26.3 (≈ 66.6 µM) | significant tumor inhibition effects | 30 (≈ 76.1 µM) | 23 ± 2.76 (≈ 58.2 µM) | 11.8 ± 0.995 (≈ 29.9 µM) | 4.27 (≈ 10.8 µM) | 22.4 ± 2.03 (≈ 56.9 µM) | 10.3 ± 0.597 (≈ 26.2 µM) | 136 (≈ 344 µM) | 12.2 ± 2.15 (≈ 31 µM) | 22.6 ± 3.01 (≈ 57.3 µM) | 24 ± 1.87 (≈ 60.8 µM) | the best effect | 24 ± 2.66 (≈ 60.8 µM) | 24.5 ± 2.09 (≈ 62.1 µM) | 13 ± 2.5 (≈ 32.9 µM) | 237.25 ± 22.38 | 36.4 | 
2 | CCC/C=C1\OC(=O)c2ccccc21 [BP, n-butylidenephthalide, reference compound] |  | some inhibition effects |  |  |  |  |  |  |  |  |  |  |  |  |  |  |  |  | dose needed to reach similar effects compared with the dimeric phthalide compound [2]: ≥ 10 folds
3 | CCC/C=C1\OC(=O)C2=C1CCC1C2[C@@]23CC[C@@H]1C=C2C(=O)O/C3=C\CCC (stereo partly shown) [S4] | 21.4 (≈ 56.2 µM) | significant tumor inhibition effects | 30.4 (≈ 79.9 µM) | 22.7 ± 2.55 (≈ 59.6 µM) | 12.4 ± 1.01 (≈ 32.5 µM) | 4.14 (≈ 10.9 µM) | 18.4 ± 2.8 (≈ 48.5 µM) | 11.5 ± 0.831 (≈ 30.3 µM) | 82.2 (≈ 216 µM) | 17.4 ± 2.03 (≈ 45.9 µM) | 16.4 ± 1.94 (≈ 43.2 µM) | 19.4 ± 3.12 (≈ 51 µM) | the best effect | 17.6 ± 3.68 (≈ 46.1 µM) | 20.3 ± 2.12 (≈ 53.4 µM) | 15.5 ± 3.22 (≈ 40.8 µM) | 234.00 ± 34.03 | 37.3 | inhibition effect on proliferation of various human cancer cells [8]: best inhibition effects on most of the cancer cells; inducing decrease of cell mitochondria membrane potential and cell death (HL-60, H1299, U251 cells): best effect of inducing cell death
